# Assay results taken from patent US9075060B2, “Methods for diagnosing oral or oral-pharyngeal cancer” (Technion Research & Development Foundation Limited, priority 2009, dated 2015).
# Columns and labels:
# TSPO [1] = target: T1, TSPO (Homo sapiens, UniProt P30536); assay: [3H]PK 11195 binding to membranes of SCC-25 cells, Scatchard analysis; conditions: mean±SD, n=7
# T1 construct: Assays of [^3H]; host or cells: SCC-25 and SCC-15 human oral cancer cell lines
# Experimental: (§1) Assays of [^3H] […] After 80 minute incubation at 4° C., the samples were filtered through Whatman CF/C filters using a vacuum system, washed three times with 4 ml of 5 mM ice cold phosphate buffer and placed in vials containing 4 ml of CytoScint™ (MP Biomedicals, Costa Mesa, Calif.). Radioactivity was counted after 12 hours with a liquid scintillation analyzer. Specific binding was obtained by subtracting non-specific binding from total binding.
# TSPO [2] = target: T1, TSPO; assay: [3H]PK 11195 binding to membranes of SCC-15 cells, Scatchard analysis; conditions: mean±SD, n=16
# Experimental: as §1
# T1 sequence (P30536 whole entry): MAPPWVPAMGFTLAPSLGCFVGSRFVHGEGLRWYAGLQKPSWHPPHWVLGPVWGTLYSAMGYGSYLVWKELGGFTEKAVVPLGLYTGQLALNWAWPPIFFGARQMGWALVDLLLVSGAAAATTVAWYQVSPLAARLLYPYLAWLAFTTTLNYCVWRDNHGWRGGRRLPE
smiles,measurement,setting,value
"CCC(C)N(C)C(=O)c1cc2ccccc2c(-c2ccccc2Cl)n1 (centres unmarked) [[^3H]PK 11195, PK 11195]",Bmax (maximal binding capacity),TSPO [1],3133±643 fmoles/mg protein
same,Bmax (maximal binding capacity),TSPO [2],6956±549 fmoles/mg protein
